Assay results reported in PMC8070033, “Bimetallic Iron–Palladium Catalyst System as a Lewis-Acid for the Synthesis of Novel Pharmacophores Based Indole Scaffold as Anticancer Agents” (Molecules, 2021).
Values after ≈ are worked out from the molar mass of the structure shown.

Assays:
[1] = test system: PC3 cells (Prostate Cancer); assay: PC3 cells (Prostate Cancer) MTT assay; type: cell-based; details: for IC50: MTT assay, 48 hrs, ± SD from three independent experiments, NA: did not show anticancer activity at 30 µM
Experimental: (§1) Cytotoxicity against BJ Human fibroblast cells, and anti-cancer activity against PC3, HeLa and MCF-7 cancer cell lines were evaluated by following the procedure as described in the literature (Supplementary Materials).
The Biological Activity Assays Protocols
A. PC3 cells (Prostate Cancer) assay […]
For this purpose, PC3 cells (Prostate Cancer) were cultured in Dulbecco’s Modified Eagle Medium, supplemented with 5% of fetal bovine serum (FBS), 100 IU/ml of penicillin and 100 µg/ml of streptomycin in 75 cm2 flasks, and kept in 5% CO2 incubator at 37 °C. Exponentially growing cells were harvested, counted with haemocytometer and diluted with a particular medium. Cell culture with the concentration of 1x10^5 cells/ml was prepared and introduced (100 µL/well) into 96-well plates. After overnight incubation, medium was removed and 200 µL of fresh medium was added with different concentrations of compounds (1-30µM). After 48 hrs, 200 µL MTT (0.5 mg/ml) was added to each well and incubated further for 4 hrs. Subsequently, 100µL of DMSO was added to each well. The extent of MTT reduction to formazan within cells was calculated by measuring the absorbance at 570 nm, using a micro plate reader (Spectra Max plus, Molecular Devices, CA, USA). The cytotoxicity was recorded as concentration causing 50% growth inhibition (IC50) for PC3 cells. The percent inhibition was calculated by using the following formula: […]
(§2) of positive control – mean of O.D of negative control)*100).
(§3) The results (% inhibition) were processed by using Soft- Max Pro software (Molecular Device, USA).
Standard drug used in the MTT assay was doxorubicin.
(§4) 1. Mosmann T. Rapid colorimetric assay for cellular growth and survival: application to proliferation and cytotoxicity assays. J Immunol Meth 1983, 65, 55–63. […]

[2] = test system: HeLa cells (Cervical Cancer); assay: HeLa cells (Cervical Cancer) MTT assay; type: cell-based; details: ± SD from three independent experiments, NA: did not show anticancer activity at 30 µM
Experimental: (§5) Cytotoxicity against BJ Human fibroblast cells, and anti-cancer activity against PC3, HeLa and MCF-7 cancer cell lines were evaluated by following the procedure as described in the literature (Supplementary Materials). […]
as §2, §3
(§6) Following concentrations were used to calculate (in case) of IC50:
(§7) Standard drug used in the MTT assay was doxorubicin. […]
C. HeLa cells (Cervical Cancer) assay
Cytotoxic activity of compounds was evaluated in 96-well flat-bottomed micro plates by using the standard MTT (3-[4, 5-dimethylthiazole-2-yl]-2, 5-diphenyl-tetrazolium bromide) colorimetric assay40.
For this purpose, HeLa cells (Cervical Cancer) were cultured in Minimum Essential Medium Eagle, supplemented with 5% of fetal bovine serum (FBS) , 100 IU/ml of penicillin and 100 µg/ml of streptomycin in 75 cm2 flasks, and kept in 5% CO2 incubator at 37 °C. Exponentially growing cells were harvested, counted with haemocytometer and diluted with a particular medium. Cell culture with the concentration of 6x10^4 cells/ml was prepared and introduced (100 µL/well) into 96 -well plates. After overnight incubation, medium was removed and 200 µL of fresh medium was added with different concentrations of compounds (1-30µM). After 48 hrs, 200 µL MTT (0.5 mg/ml) was added to each well and incubated further for 4 hrs. Subsequently, 100µL of DMSO was added to each well. The extent of MTT reduction to formazan within cells was calculated by measuring the absorbance at 570 nm, using a micro plate reader (Spectra Max plus, Molecular Devices, CA, USA). The cytotoxicity was recorded as concentration causing 50% growth inhibition (IC 50) for HeLa. The percent inhibition was calculated by using the following formula: […]
The results (% inhibition) were processed by using Soft - Max Pro software (Molecular Device, USA).
as §4

[3] = test system: MCF-7 breast cancer cell line; assay: MCF-7 breast cancer cell line MTT assay; type: cell-based; details: for IC50: MTT assay, 48 hours, ± SD from three independent experiments, NA: did not show anticancer activity at 30 µM
Experimental: as §5
(§8) of positive control – mean of O.D of negative control)*100). […]
as §6, §7
D. MCF-7 breast cancer cell line assay.
MTT assay is a rapid and quantitative assay capable of measuring the surviving or proliferating cells.
It is based on the reduction of tetrazolium salt MTT (3-(4,5-dimethylthiazol-yl)-2,5-diphenyl tetrazolium bromide) by various dehydrogenase enzymes present in living cells. The tetrazolium ring present in MTT is cleaved in active mitochondria, which results in production of purple colored formazan crystals. These crystals are dissolved in DMSO and optical density of the color produced is taken by spectrophotometer (ELISA reader), with high efficiency and accuracy.
This assay was optimized and slightly modified according to our cell lines, i.e. MCF-7 breast cancer cell […]
1. MCF-7 cell line were cultured in Dulbecco’s modified Eagle medium (containing 10% fetal bovine serum) in 75 cc flasks, and kept in 5% CO 2 incubator at 37 °C.
2. Upon confluency, cells were harvested and plated in 96-well tissue culture treated flat bottom plates (seeding density 8,000 cells/well for MCF-7) in 100 µL medium.
3. Next day, compounds were added in triplicate at 50 µM concentration, and incubated for 48 hours. For natural extracts, the concentration was 50 µg/mL.
4. After 48 hrs incubation, the compounds were removed and 200 µL MTT at 0.5 mg/mL was added to each well and incubated at 37 °C for 3 hours.
5. Formazan crystals, formed by reduction of MTT were dissolved in 100 µL DMSO and absorbance was taken at 570 nm using micro-plate reader (Spectra Max plus, Molecular […]
6. The percent inhibition or decrease in viable cells was calculated by following formula:
% Inhibition = 100 - (mean of O.D. of test compound - mean of O.D. of negative control) / (mean of O.D. of positive control - mean of O.D. of negative control) x 100) […]
Twenty (20) mM stock concentration of compounds were diluted to working concentration of 50 µM, and then further serial dilutions were made in order to get less than 50% inhibition.
The IC50 was then calculated by using EZ-fit5 software.

Human fibroblast BJ = assay: Cytotoxicity MTT assay, BJ human fibroblast cells; type: cell-based; details: 48 hrs, ± SD from three independent experiments, NA: did not show activity at 30 µM
Experimental: as §1
The Biological Activity Assays Protocols […]
as §8, §7
B. Cytotoxicity assay Protocol (BJ Human fibroblast cells) […]
standard MTT (3-[4, 5-dimethylthiazole-2-yl]-2, 5-diphenyl-tetrazolium bromide) colorimetric assay (Price & J. McMillan1, 1990). For this purpose, BJ Human fibroblast cells were cultured in Dulbecco’s Modified Eagle Medium, supplemented with 10% of fetal bovine serum (FBS), 100 IU/ml of penicillin and 100 µg/ml of streptomycin and 2 mM L‐glutamine in 75 cm2 flasks, and kept in 5% CO2 incubator at 37 °C (Mannerström, Toimela, Sarkanen & Heinonen, 2017).
Exponentially growing cells were harvested, counted with haemocytometer and diluted with a particular medium. Cell culture with the concentration of 6x10^4cells/ml was prepared and introduced (100 µL/well) into 96-well plates. After overnight incubation, medium was removed and 200 µL of fresh medium was added with different concentrations of compounds (1 -30µM). After 48 hrs, 200 µL MTT (0.5 mg/ml) was added to each well and incubated further for 3 hrs.
Subsequently, 100µL of DMSO was added to each well. The extent of MTT reduction to formazan within cells was calculated by measuring the absorbance at 550 nm, using a micro plate reader (Spectra Max plus, Molecular Devices, CA, USA). The cytotoxicity was recorded as concentra tion causing 50% growth inhibition (IC50) for BJ cells. The percent inhibition was calculated by using the following […]
Following concentrations were used to calculate (in case) of IC50: […]

P-388 cell lines = test system: P-388 cell lines; design: method as in PMID 8597898, doi:10.1016/j.tet.2007.05.127, doi:10.1021/jo00248a040; details: cited from earlier work
MDAMB (human mammary) = test system: MDAMB (human mammary); design: method as in PMID 8597898, doi:10.1016/j.tet.2007.05.127, doi:10.1021/jo00248a040; details: cited from earlier work
HCT-8 (human colon) = test system: HCT-8 (human colon); design: method as in PMID 8597898, doi:10.1016/j.tet.2007.05.127, doi:10.1021/jo00248a040; details: cited from earlier work
A-549 (human lung) = test system: A-549 (human lung); design: method as in PMID 8597898, doi:10.1016/j.tet.2007.05.127, doi:10.1021/jo00248a040; details: cited from earlier work

| SMILES | IC50 ([1]; Homo sapiens, PC-3, 48 h) [µM] | IC50 ([2]; Homo sapiens, HeLa, 48 h) [µM] | melting point [°C] | IC50 (Human fibroblast BJ) [µM] | IC50 ([3]; Homo sapiens, MCF7, 48 h) [µM] | further results |
| --- | --- | --- | --- | --- | --- | --- |
| O=C(CC(c1cc2ccccc2o1)c1c[nH]c2ccccc12)c1ccccc1 (centres unmarked) [Compound 3a, 3-(Benzofuran-2-yl)-3-(1H-indol-3-yl)-1-phenylpropan-1-one] | 11.4 ± 0.2 | 22.5 ± 0.9 | 114 to 115 |  |  | anticancer activity against MCF-7 breast cancer cell line (in words) ([3]; in comparison to doxorubicin): inactive |
| O=C(CC(c1cc2ccccc2o1)c1c[nH]c2ccccc12)c1ccc(F)cc1 (centres unmarked) [Compound 3b, 3-(Benzofuran-2-yl)-1-(4-fluorophenyl)-3-(1H-indol-3-yl)propan-1-one] | 22.2 ± 0.5 | 8.2 ± 0.2 | 157 to 158 | > 30 | 12.3 ± 0.04 | IC50 [3]: 12.37 ± 0.04 µM |
| O=C(CC(c1cc2ccccc2o1)c1c[nH]c2ccc(Br)cc12)c1ccc(F)cc1 (centres unmarked) [Compound 3c, 3-(Benzofuran-2-yl)-3-(5-bromo-1H-indol-3-yl)-1-(4-fluorophenyl)propan-1-one] | 21.9 ± 1.5 | 10.8 ± 0.1 | 167 to 168 | > 30 | 25.9 ± 0.8 |  |
| O=C(CC(c1cc2ccccc2o1)c1c[nH]c2ccccc12)c1ccc(Cl)cc1 (centres unmarked) [Compound 3f, 3-(Benzofuran-2-yl)-1-(4-chlorophenyl)-3-(1H-indol-3-yl)propan-1-one] | 16.3 ± 1.6 | 11.9 ± 0.2 | 126 to 127 | > 30 | 19.3 ± 0.78 | IC50 [1]: 27 ± 0.4 µM |
| COc1cccc(C(=O)CC(c2cc3ccccc3o2)c2c[nH]c3cc(F)ccc23)c1 (centres unmarked) [Compound 3m, 3-(Benzofuran-2-yl)-3-(6-fluoro-1H-indol-3-yl)-1-(3-methoxyphenyl)propan-1-one] | 19.3 ± 0.1 | 15.2 ± 0.2 | 154 to 155 | > 50 | 22.9 ± 0.43 | IC50 [3]: 22.9 ± 0.43 µM |
| COc1ccccc1C(=O)CC(c1cc2ccccc2o1)c1c[nH]c2ccc(Br)cc12 (centres unmarked) [Compound 3s, 3-(Benzofuran-2-yl)-3-(5-bromo-1H-indol-3-yl)-1-(2-methoxyphenyl)propan-1-one] | 29.7 ± 0.5 | 18.4 ± 0.2 | 60 to 61 |  | 28.6 ± 0.33 | anticancer activity against PC3 prostate cancer cell line (in words) ([1]; in comparison to doxorubicin): inactive |
| COc1cccc2c1C(=O)c1c(O)c3c(c(O)c1C2=O)C[C@@](O)(C(=O)CO)C[C@@H]3O[C@H]1C[C@H](N)[C@H](O)[C@H](C)O1 [Doxorubicin, doxorubicin, reference compound] |  |  |  |  | 0.79 ± 0.05 | IC50 [1]: 1.9 ± 0.4 µM; IC50 ([1]; listed as doxorubicin): 0.9 ± 0.14 µM; IC50 ([2]; 48 hrs): 0.9 ± 0.14 µM; IC50 ([2]; 48 hrs, listed as doxorubicin): 1.9 ± 0.4 µM |
| CN1CC(c2c[nH]c3c(Br)c(Br)cc(O)c23)NCC1c1c[nH]c2cc(Br)ccc12 (centres unmarked) [dragmacidin] |  |  |  |  |  | IC50, anti-tumor activity against P-388 cell lines (P-388 cell lines): 15 µg/mL (≈ 25.7 µM); IC50 against MDAMB (human mammary) cancer cell line (MDAMB (human mammary)): 1 to 10 µg/mL; IC50 against HCT-8 (human colon) cancer cell line (HCT-8 (human colon)): 1 to 10 µg/mL; IC50 against A-549 (human lung) cancer cell line (A-549 (human lung)): 1 to 10 µg/mL |
